Consider one molecule from patent US20020091086A1, “Peptides that block viral infectivity and methods of use thereof” (priority 1999, published 2002).

SMILES strings stand for the structures. Peptide text beside a SMILES is read from it.

The subject of series [1] is HIV-1Bru wild-type. The series is described as follows: infectivity in MT-2 cells, p24 ELISA, wild-type. In kind it is cell-based. The method, then:
(§1) Accordingly, the ability of GPG-NH2 to inhibit the infectivity of wild-type and V3-loop deletion mutants (GPG domain) in MT-2 cells was determined. In these experiments, approximately 200,000 MT-2 cells were infected with HIV-1Bru wild-type and GPG-deleted mutants mp8 and mp10 at 25 TCID50 to test the inhibitory effect of GPG-NH2 The MT-2 cells were resuspended in 1 ml of RPMT 1640 medium supplemented with 10% (v/v) heat-inactivated fetal bovine serum (FBS, GIBCO), penicillin (100μ/ml), streptomycin (100μ/ml) and Polybrene (Sigma 2 μg/ml) with or without the presence of GPG-NH2 at concentration 20 of μM and 100 μM. Thereafter, viruses were added at 25 TCID50 in a volume of 20-30 μl. Cells were incubated with virus at 37° C. for 16 hr then loosely pelleted by centrifugation at 170×g for 7 minutes. The cells were then washed three times in RPMI medium without peptides at room temperature by cell sedimentation at 170×g for 7 minutes as above. After the final wash, the cells were resuspended in RPMI culture medium in 24-well plate (Costar corporation) then kept at 37° C. in 5% CO2 with humidity. Culture supernatants were collected when medium was changed at day 4, 7, 11 and 14 post infection. To monitor the replication of virus, HIV-1 p24 antigen protein in the supernatants from day 7 and 14 was assayed by a ELISA kit (Abbott Laboratories) which has a linear dose-response range from 20 pg to 640 pg of p24 per ml and the p24 amount can be determined with aid of the regression line.
(In general: In an ELISA, binding on a coated surface is turned into a signal by an enzyme label.)

Series [2] deals with GPG-deleted mutant mp8. The series is described as follows: infectivity in MT-2 cells, p24 ELISA, GPG-deleted mutant mp8. In kind it is cell-based, HIV-1. The method, then:
as §1

For series [3], the system named is HIV-1 SF-2 virus. The series is described as follows: combination of GPG-NH2 with AZT or Ritonavir in HUT78 cells, p24. In kind it is cell-based.
For series [4], the system named is polio viruses. The series is classed as cell-based.
Series [5] is described as follows: four week oral toxicology study in rats. To be noted: orally up to 1 g per kilo bodyweight per day, twenty eight days. In kind it is in vivo. The method, then: In this example, the results from several in vivo toxicology studies on small peptides administered in large doses to rodents are presented. In a first experiment, a large single dose of small peptide was delivered to mice and the toxic effects were analyzed. […] In a second experiment, several doses of varying amounts of a small peptide were delivered to mice for almost three weeks. Groups of mice (five mice in each group) were given intraperitoneal injections of GPG-NH2 (0.01, 0.1 and 1 g per kilo bodyweight and day, respectively) starting at an age of 6 days. Daily injections were continued for 18 days. […] In a similar experiment, a four week toxicology study of GPG-NH2 was performed by Scantox A/S in Denmark. GPG-NH2 was given orally to rats at doses up to 1 g per kilo bodyweight per day for twenty eight days.

Series [6] can be described thus: acid stability in 50 mM KCl and 0.1M HCl by TLC. The series is classed as physicochemical. As to conditions: up to 24 hours. The method, then:
Because an oral administration of a pharmaceutical comprising a small peptide is desired, the acid stability of small peptides was assessed by incubating ^14C-labelled GPG-NH2 in a solution of 50 mM KCl and 0.1M HCl for various time periods. After acid hydrolysis, the radiolabeled tripeptide was analyzed by thin layer chromatography (TLC) and the HPTLC plate was developed with 25% methanol: 25%isopropanol: 15% butanol: 35% (0.1N HOAc and 0.1N NaOAc).

Regarding `NCC(=O)N1CCC[C@H]1C(=O)NCC(N)=O` [GPG-NH2, glycyl-prolyl-glycine amide] (H-Gly-Pro-Gly-NH2), the p24 in series [1] (GPG 20 μM, Day 7, WT) worked out at 23900 pg/mL; in series [1] (GPG 20 μM, Day 14, WT), 223000 pg/mL; in series [1] (GPG 100 μM, Day 7, WT), 3390 pg/mL; in series [1] (GPG 100 μM, Day 14, WT), 181000 pg/mL; in series [2] (GPG 20 μM, Day 7), 2420 pg/mL; in series [2] (GPG 20 μM, Day 14), 69100 pg/mL. Also, the p24 in series [2] (GPG 100 μM, Day 7) was determined as 208 pg/mL; in series [2] (GPG 100 μM, Day 14), 7410 pg/mL. Besides, the reduction (%) in series [1] (GPG 20 μM, Day 7, WT) is 29%; in series [1] (GPG 20 μM, Day 14, WT), 38%; in series [1] (GPG 100 μM, Day 7, WT), 90%; in series [1] (GPG 100 μM, Day 14, WT), 49%; in series [2] (GPG 20 μM, Day 7), 24%; in series [2] (GPG 20 μM, Day 14), 53%. The reduction (%) in series [2] (GPG 100 μM, Day 7) stood at 93%; in series [2] (GPG 100 μM, Day 14), 95%. Further, in series [3] (combination with AZT), the “effect on inhibition of HIV-1 replication in the presence of AZT” value is “synergistically”. In addition, the “antiviral effect together with Ritonavir” value in series [3] (combination with Ritonavir) is on record as “additive antiviral effect”. Moreover, the “inhibition of polio virus” value in series [4] is listed as “failed inhibit either influenza or polio viruses”. The signs of toxicity entry in series [5] is listed as “No signs of toxicity”. Also, the “TLC mobility after acid exposure” value in series [6] is “did not affect the mobility”.
